Experimental data published in patent publication US20170027172A1, “USE OF SUBSTITUTE OXO TETRAHYDROQUINOLINE SULFONAMIDES OR SALTS THEREOF FOR RAISING STRESS TOLERANCE OF PLANTS” (BAYER CROPSCIENCE AKTIENGESELLSCHAFT, priority 2014, published 2017).

Target: T1, phosphatase ABI1 via the co-regulator RCAR11/PYR1 (Arabidopsis thaliana, UniProt O49686+P49597)
T1 sequence (O49686 1-191): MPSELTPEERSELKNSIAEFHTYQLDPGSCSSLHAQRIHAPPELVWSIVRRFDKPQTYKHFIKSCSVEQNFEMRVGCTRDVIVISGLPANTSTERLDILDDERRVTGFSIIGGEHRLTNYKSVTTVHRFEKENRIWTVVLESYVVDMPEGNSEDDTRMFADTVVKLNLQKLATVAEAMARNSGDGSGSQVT
T1 sequence (P49597 1-434): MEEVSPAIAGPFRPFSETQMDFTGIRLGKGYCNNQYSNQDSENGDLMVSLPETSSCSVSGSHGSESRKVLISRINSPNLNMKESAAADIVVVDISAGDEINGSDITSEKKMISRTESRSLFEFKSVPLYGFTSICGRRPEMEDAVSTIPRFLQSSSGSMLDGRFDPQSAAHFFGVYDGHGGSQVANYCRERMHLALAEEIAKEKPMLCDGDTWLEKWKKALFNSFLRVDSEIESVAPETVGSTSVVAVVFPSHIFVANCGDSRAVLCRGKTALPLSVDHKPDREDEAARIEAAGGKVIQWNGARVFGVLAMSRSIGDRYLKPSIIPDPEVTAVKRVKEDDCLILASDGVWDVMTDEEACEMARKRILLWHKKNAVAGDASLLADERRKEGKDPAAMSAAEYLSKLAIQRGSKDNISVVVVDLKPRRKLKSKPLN
Assay: In vitro inhibition of the phosphatase ABI1 via the co-regulator RCAR11/PYR1, MUP dephosphorylation
Type: biochemical
Parameters: dose or concentration left out as unconfirmed
Settings: in a solution of DMSO and water; fluorescence at 460 nm
Source text: Effects of the phytohormone abscisic acid (ABA) on the behavior of plants under abiotic stress and the mechanism of action of ABA are described in the literature (cf. Abrams et al., WO97/23441, Park et al. Science, 2009, 324, 1068; Grill et al. Science, 2009, 324, 1064; Tanokura et al. Biophysics, 2011, 7, 123; Schroeder et al. Plant J. 2010, 61, 290). Therefore, it is possible with the aid of a suitable in vitro test system to derive a correlation between the action of ABA and the stress response of a plant under abiotic stress. In the event of water deficiency (drought stress), plants form the phytohormone abscisic acid (ABA). This binds, along with a co-regulator (Regulatory Component of ABA-Receptor=RCAR according to Grill et al. Science, 2009, 324, 1064 or PYR/PYL according to Cutler et al. Science, 2009, 324, 1068), to a phosphatase (e.g. ABI1, a type 2C protein phosphatase, also abbreviated to PP2C) and inhibits its activity. As a result, a “downstream” kinase (e.g. SnRK2) is no longer dephosphorylated. This kinase, which is thus active, via phosphorylation of transcription factors (e.g. AREB/ABF, cf. Yoshida et al., 2010, 61, 672), switches on a genetic protection program to increase drought stress tolerance. The assay described hereinafter utilizes the inhibition of the phosphatase ABI1 via the co-regulator RCAR11/PYR1 aus Arabidopsis thaliana. For the determination of activity, the dephosphorylation of 4-methylumbelliferyl phosphate (MUP) was measured at 460 nm. The in vitro assay was conducted in Greiner 384-well PS microplates F-well, using two controls: a) 0.5% dimethyl sulfoxide (DMSO) and b) 5 μM abscisic acid (ABA). The assay described here was generally conducted with substance concentrations of the appropriate chemical test substances in a concentration range of 0.1 μM to 100 μM in a solution of DMSO and water. The substance solution thus obtained, if necessary, was stirred with esterase from porcine liver (EC 3.1.1.1) at room temperature for 3 h and centrifuged at 4000 rpm for 30 min. A total volume of 45 μl was introduced into each cavity of the microplate, having the following composition: • 1) 5 μl of substance solution, i.e. a) DMSO 5% or b) abscisic acid solution or c) the corresponding example compound of the general formula (I) dissolved in 5% DMSO. • 2) 20 μl of enzyme buffer mix, composed of a) 40% by vol. of enzyme buffer (10 mL contain equal proportions by volume of 500 mM Tris-HCl pH 8, 500 mM NaCl, 3.33 mM MnCl2, 40 mM dithiothreitol (DTT)), b) 4% by vol. of ABI1 dilution (protein stock solution was diluted so as to give, after addition, a final concentration in the assay of 0.15 μg ABI1/well), c) 4% by vol. of RCAR11 dilution (enzyme stock was diluted so as to give, on addition of the dilution to the enzyme buffer mix, a final concentration in the assay of 0.30 μg enzyme/well), d) 5% by vol. of Tween20 (1%), e) 47% by vol. H2O bi-dist. • 3) 20 μl of substrate mix, composed of a) 10% by vol. of 500 mM Tris-HCl pH8, b) 10% by vol. of 500 mM NaCl, c) 10% by vol. of 3.33 mM MnCl2, d) 5% by vol. of 25 mM MUP, 5% by vol. of Tween20 (1%), 60% by vol. of H2O bi-dist.
Enzyme buffer mix and substrate mix were made up 5 minutes prior to the addition and warmed to a temperature of 35° C. On completion of pipetting of all the solutions and on completion of mixing, the plate was incubated at 35° C. for 20 minutes. Finally, a relative fluorescence measurement was made at 35° C. with a BMG Labtech “POLARstar Optima” microplate reader using a 340/10 nm excitation filter and a 460 nm emission filter. The efficacy of the compounds of the general formula (I) is reported in the table which follows using abscisic acid […] as comparative substance (No. 37) according to the following classification: ++++ (inhibition≧90%), +++ (90%>inhibition≧70%), ++ (70%>inhibition≧50%), + (50%>inhibition≧30%). […]

| Compound | ABI1 inhibition |
| --- | --- |
| O=C1CCc2cc(NS(=O)(=O)Cc3cccc(F)c3)ccc2N1CC1CCC1 [A21-159] | ++++ (inhibition≧90%) |
| O=C1CCc2cc(NS(=O)(=O)Cc3ccc(Cl)cc3)ccc2N1CC1CCC1 [A21-165] | ++++ (inhibition≧90%) |
| CCc1ccc(CS(=O)(=O)Nc2ccc3c(c2)CCC(=O)N3CC2CCC2)cc1 [A21-325] | ++++ (inhibition≧90%) |
| CCc1ccc(S(=O)(=O)Nc2ccc3c(c2)CCC(=O)N3CC2CCC2)cc1 [A21-601] | ++++ (inhibition≧90%) |
| Cc1ccc(CS(=O)(=O)Nc2ccc3c(c2)CCC(=O)N3CC2CCCC2)cc1 [A22-152] | +++ (90%>inhibition≧70%) |
| O=C1CCc2cc(NS(=O)(=O)Cc3ccc(Cl)cc3)ccc2N1CC1CCCC1 [A22-165] | +++ (90%>inhibition≧70%) |
| N#Cc1ccc(CS(=O)(=O)Nc2ccc3c(c2)CCC(=O)N3CC2CCCC2)cc1 [A22-181] | +++ (90%>inhibition≧70%) |
| Cc1ccc(CS(=O)(=O)Nc2ccc3c(c2)CCC(=O)N3CC2CC2(Cl)Cl)cc1 (centres unmarked) [A32-152] | ++ (70%>inhibition≧50%) |
| O=C1CCc2cc(NS(=O)(=O)Cc3ccc(C(F)(F)F)cc3)ccc2N1CC1CC1(Cl)Cl (centres unmarked) [A32-178, N-[1-(2′,2′-Dichlorocyclopropylmethyl)-2-oxo-1,2,3,4-tetrahydroquinolin-6-yl]-1-(4-trifluoromethylphenyl)methanesulfonamide] | ++ (70%>inhibition≧50%) |
| COCCN1C(=O)CCc2cc(NS(=O)(=O)Cc3ccc(C)cc3)ccc21 [A38-152, N-[1-(Methoxyethyl)-2-oxo-1,2,3,4-tetrahydroquinolin-6-yl]-1-(4-methylphenyl)methanesulfonamide] | ++++ (inhibition≧90%) |
| COCCN1C(=O)CCc2cc(NS(=O)(=O)Cc3cccc(Cl)c3)ccc21 [A38-166] | +++ (90%>inhibition≧70%) |
| CCOCCN1C(=O)CCc2cc(NS(=O)(=O)Cc3ccc(C)cc3)ccc21 [A39-152] | ++++ (inhibition≧90%) |
| COC(=O)CN1C(=O)CCc2cc(NS(=O)(=O)Cc3ccccc3)ccc21 [A50-151] | ++ (70%>inhibition≧50%) |
| COC(=O)CN1C(=O)CCc2cc(NS(=O)(=O)Cc3cccc(C)c3)ccc21 [A50-153] | ++ (70%>inhibition≧50%) |
| COC(=O)CN1C(=O)CCc2cc(NS(=O)(=O)Cc3cccc(Cl)c3)ccc21 [A50-166] | ++ (70%>inhibition≧50%) |
| COC(=O)CN1C(=O)CCc2cc(NS(=O)(=O)Cc3ccc(Br)cc3)ccc21 [A50-172] | ++++ (inhibition≧90%) |
| COC(=O)CCN1C(=O)CCc2cc(NS(=O)(=O)Cc3ccccc3)ccc21 [A51-151] | +++ (90%>inhibition≧70%) |
| COC(=O)CCN1C(=O)CCc2cc(NS(=O)(=O)Cc3ccc(C)cc3)ccc21 [A51-152] | ++++ (inhibition≧90%) |
| COC(=O)CCN1C(=O)CCc2cc(NS(=O)(=O)Cc3ccccc3F)ccc21 [A51-161] | +++ (90%>inhibition≧70%) |
| COC(=O)CCN1C(=O)CCc2cc(NS(=O)(=O)Cc3cccc(C(F)(F)F)c3)ccc21 [A51-179] | ++ (70%>inhibition≧50%) |
| CC1(C)CC(=O)N(CC#N)c2ccc(NS(=O)(=O)Cc3ccc(Cl)cc3)cc21 [B16-165] | +++ (90%>inhibition≧70%) |

Second part, the compound after the results:

| ABI1 inhibition | Compound |
| --- | --- |
| +++ (90%>inhibition≧70%) | O=C1CCc2cc(NS(=O)(=O)Cc3ccc(C(F)(F)F)cc3)ccc2N1CC1CCC1 [A21-178] |
| ++++ (inhibition≧90%) | N#Cc1ccc(CS(=O)(=O)Nc2ccc3c(c2)CCC(=O)N3CC2CCC2)cc1 [A21-181, N-[1-(Cyclobutylmethyl)-2-oxo-1,2,3,4-tetrahydroquinolin-6-yl]-1-(4-cyanophenyl)methanesulfonamide] |
| ++++ (inhibition≧90%) | CC(C)(C)c1ccc(CS(=O)(=O)Nc2ccc3c(c2)CCC(=O)N3CC2CCC2)cc1 [A21-332] |
| ++ (70%>inhibition≧50%) | O=C1CCc2c(cc(F)c(NS(=O)(=O)Cc3ccc(F)cc3)c2F)N1CC1CC1 [A29-158] |
| +++ (90%>inhibition≧70%) | N#Cc1ccc(CS(=O)(=O)Nc2ccc3c(c2)CCC(=O)N3CC2CC2(Cl)Cl)cc1 (centres unmarked) [A32-181] |
| ++++ (inhibition≧90%) | COCCN1C(=O)CCc2cc(NS(=O)(=O)Cc3ccc(C(F)(F)F)cc3)ccc21 [A38-178] |
| + (50%>inhibition≧30%) | CCOCCN1C(=O)CCc2cc(NS(=O)(=O)Cc3ccc(F)cc3)ccc21 [A39-158] |
| +++ (90%>inhibition≧70%) | CCOCCN1C(=O)CCc2cc(NS(=O)(=O)Cc3ccc(C#N)cc3)ccc21 [A39-181] |
| ++++ (inhibition≧90%) | CC(C#N)CN1C(=O)CCc2cc(NS(=O)(=O)Cc3ccc(Cl)cc3)ccc21 (centres unmarked) [A47-165] |
| ++++ (inhibition≧90%) | N#CCCCN1C(=O)CCc2cc(NS(=O)(=O)Cc3ccc(C#N)cc3)ccc21 [A48-181] |
| ++++ (inhibition≧90%) | COCN1C(=O)CCc2cc(NS(=O)(=O)Cc3ccc(Cl)cc3)ccc21 [A49-165] |
| +++ (90%>inhibition≧70%) | COC(=O)CN1C(=O)CCc2cc(NS(=O)(=O)Cc3ccc(F)cc3)ccc21 [A50-158] |
| +++ (90%>inhibition≧70%) | COC(=O)CN1C(=O)CCc2cc(NS(=O)(=O)Cc3ccccc3F)ccc21 [A50-161] |
| ++++ (inhibition≧90%) | COC(=O)CN1C(=O)CCc2cc(NS(=O)(=O)Cc3ccc(Cl)cc3)ccc21 [A50-165] |
| +++ (90%>inhibition≧70%) | COC(=O)CN1C(=O)CCc2cc(NS(=O)(=O)Cc3ccc(C#N)cc3)ccc21 [A50-181] |
| ++ (70%>inhibition≧50%) | COC(=O)CN1C(=O)CCc2cc(NS(=O)(=O)CCc3ccc(Cl)cc3)ccc21 [A50-291] |
| ++++ (inhibition≧90%) | COC(=O)CCN1C(=O)CCc2cc(NS(=O)(=O)Cc3ccccc3Cl)ccc21 [A51-168] |
| ++ (70%>inhibition≧50%) | COC(=O)CCN1C(=O)CCc2cc(NS(=O)(=O)Cc3cccc(Br)c3)ccc21 [A51-173] |
| +++ (90%>inhibition≧70%) | COC(=O)CCN1C(=O)CCc2cc(NS(=O)(=O)Cc3ccc([N+](=O)[O-])cc3)ccc21 [A51-175] |
| ++ (70%>inhibition≧50%) | COC(=O)CCN1C(=O)CCc2cc(NS(=O)(=O)Cc3ccccc3[N+](=O)[O-])ccc21 [A51-177] |
